In patent US10472315B2, “Inhibitors of methionine aminopeptidases and methods of treating disorders” (THE JOHNS HOPKINS UNIVERSITY, priority 2009, dated 2019):

Tested on: M. tuberculosis CDC1551 wild-type, control and MtMetAP1a/MtMetAP1c knock-in strains
Assay type: cell-based

With `O=C1C(Cl)=C(Cl)C(=O)c2ccccc21` [Compound 4, 2,3-dichloro-1,4-naphthoquinone] the “growth of MtMetAP1a and MtMetAP1c knock-in strains” value was “gained resistance” and the “growth of wild-type and control M. tuberculosis strains” value was “inhibited”.
